Reference: article PMC5290327, “SC83288 is a clinical development candidate for the treatment of severe malaria” (Nature Communications, 2017)

Assays:
k (KOP) = target: T1, k (KOP) (Rattus norvegicus, UniProt P34975); assay: Radioligand binding
T1 construct: Cerep

hERG channel = target: T2, hERG channel (Homo sapiens, UniProt Q12809); assay: hERG profiling, whole cell patch-clamp; type: cell-based
T2 construct: expressed in transfected cells; host or cells: HEK 293
Procedure: A HEK 293 cell line (Sigma Aldrich, catalogue number: 85120602) constitutively expressing the hERG channel in the membrane was used for the assay. The cells were cultured in MEM with Earle's salts and L-glutamine (10% FCS, non-essential amino acids, 300 μg ml^−1 Geneticin (G418)) and kept at 37 °C and under 5% CO2. Cells were routinely split every 3–4 days at a 1:5–1:10 ratio. The electrophysiological measurements were performed using the whole cell patch-clamp method. Extracellular bath solution contained 137 mM NaCl, 4 mM KCl, 1 mM MgCl2, 1.8 mM CaCl2, 10 mM glucose, 10 mM HEPES (pH 7.4 with NaOH), the intracellular pipette solution 130 mM KCl, 1 mM MgCl2, 5 mM MgATP, 5 mM EGTA and 10 mM HEPES (pH 7.2 with KOH). To assess the effects of SC81458 and SC83288 on the current through the hERG channel, a 1,500 ms of conditioning voltage pulse was applied every 20 s by the holding membrane potential (−80 mV) is carried out to +40 mV followed by a 500 ms test pulse of +40 mV to −40 mV. The amplitude of the current peak induced by the test pulse was determined at equilibrium (I0) and after (Idrug) addition of the substance. After the application of the substance, the cells were rinsed with extracellular bath solution until a complete recovery of the current occurred; otherwise, the cells were replaced with new ones.

M2 (h) = target: T3, M2 (h) (Homo sapiens, UniProt P08172); assay: Radioligand binding
T3 construct: Cerep

CYP3A4 = CYP3A4 (Homo sapiens, UniProt P08684); assay: CYP inhibition, human liver microsomes; conditions: 10 µM
[1] = system: synchronized Dd2 rings, trophozoites, schizonts; assay: Stage-specific activity, 6 h exposure, [3H] hypoxanthine; type: cell-based; conditions: Plasmodium falciparum, DD2, 6 h
b2 (h) = target: T4, b2 (h) (Homo sapiens, UniProt P07550); type: binding
T4 construct: Cerep (contract study)

CXCR2 (IL-8B) (h) = target: T5, CXCR2 (IL-8B) (h) (Homo sapiens, UniProt P25025); assay: Radioligand binding
T5 construct: Cerep
T5 sequence (P25025 1-360): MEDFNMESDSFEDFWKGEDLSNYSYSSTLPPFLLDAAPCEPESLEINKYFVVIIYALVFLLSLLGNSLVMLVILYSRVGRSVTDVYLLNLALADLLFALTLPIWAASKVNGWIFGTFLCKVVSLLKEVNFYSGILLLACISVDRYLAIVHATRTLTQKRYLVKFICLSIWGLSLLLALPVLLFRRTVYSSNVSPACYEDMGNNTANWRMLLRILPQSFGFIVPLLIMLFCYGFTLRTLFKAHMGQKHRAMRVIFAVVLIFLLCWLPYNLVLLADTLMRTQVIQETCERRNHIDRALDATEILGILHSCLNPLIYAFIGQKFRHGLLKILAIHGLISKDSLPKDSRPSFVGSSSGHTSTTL

BZD (central) = assay: Radioligand binding
CYP2B6 = CYP2B6 (Homo sapiens, UniProt P20813); assay: CYP inhibition, human liver microsomes; conditions: CYP2B6, bupropion to OH-bupropion, 10 µM
m (MOP) (h) = target: T6, m (MOP) (h) (Homo sapiens, UniProt P35372); assay: Radioligand binding
T6 construct: Cerep

CYP2C9 = CYP2C9 (Homo sapiens, UniProt P11712); assay: CYP inhibition, human liver microsomes; conditions: CYP2C9, tolbutamide to OH-tolbutamide, 10 µM
[2] = system: cytoplasmic free Ca2+ in P. falciparum HB3 trophozoites; assay: Ca2+ live imaging, Fluo-4; conditions: SC compounds 10 and 20 μM; CPA 10 μM
NK2 (h) = target: T7, NK2 (h) (Homo sapiens, UniProt P21452); assay: Radioligand binding
T7 construct: Cerep

Plasmodium berghei = assay: Ex vivo one-cycle growth inhibition assay; type: cell-based
Procedure: This was the case for both an in vivo 4 day dosing regimen of 30 mg kg^−1 per day and an ex vivo one-cycle growth inhibition assay. […] Differential therapeutic efficacy in various rodent model systems is a well-established phenomenon and is typically associated with charged compounds, such as positively charged amidines and negatively charged phosphoric acid or carboxylic acid containing drugs. The phenomenon is explained based on selective uptake of charged compounds through parasite-induced channels, termed new permeation pathways, in the host cell plasma membrane and species-specific characteristics of the new permeation pathways.

MT1 (ML1A) (h) = target: T8, MT1 (ML1A) (h) (Homo sapiens, UniProt P48039); assay: Radioligand binding
T8 construct: Cerep

H2 (h) = target: T9, H2 (h) (Homo sapiens, UniProt P25021); assay: Radioligand binding
T9 construct: Cerep

GAL2 (h) = target: T10, GAL2 (h) (Homo sapiens, UniProt O43603); assay: Radioligand binding
T10 construct: Cerep

5-HT1A (h) = target: T11, 5-HT1A (h) (Homo sapiens, UniProt P08908); assay: Radioligand binding
T11 construct: Cerep

[3] = CYP3A4a, midazolam to 1'-OH-midazolam
[4] = CYP3A4b, testosterone to 6β-OH-testosterone
[5] = CYP3A4c, omeprazole to omeprazole sulphone
[6] = CYP3A4d, omeprazole to 3-OH-omeprazole

Sequence of CYP3A4 (P08684 whole entry): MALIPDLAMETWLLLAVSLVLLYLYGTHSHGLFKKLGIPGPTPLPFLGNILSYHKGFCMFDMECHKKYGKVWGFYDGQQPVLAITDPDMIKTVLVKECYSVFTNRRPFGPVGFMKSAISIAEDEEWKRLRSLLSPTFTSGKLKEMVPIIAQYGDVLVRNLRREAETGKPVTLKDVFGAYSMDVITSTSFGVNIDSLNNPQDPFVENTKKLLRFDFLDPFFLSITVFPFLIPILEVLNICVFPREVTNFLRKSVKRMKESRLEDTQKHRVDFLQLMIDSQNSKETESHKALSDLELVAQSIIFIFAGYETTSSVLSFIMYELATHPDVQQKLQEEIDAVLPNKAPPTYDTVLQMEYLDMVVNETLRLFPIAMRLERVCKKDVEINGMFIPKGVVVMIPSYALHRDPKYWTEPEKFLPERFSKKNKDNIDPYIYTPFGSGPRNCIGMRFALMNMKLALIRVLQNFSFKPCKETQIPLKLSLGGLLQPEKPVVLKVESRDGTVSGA
T2 sequence (Q12809 whole entry): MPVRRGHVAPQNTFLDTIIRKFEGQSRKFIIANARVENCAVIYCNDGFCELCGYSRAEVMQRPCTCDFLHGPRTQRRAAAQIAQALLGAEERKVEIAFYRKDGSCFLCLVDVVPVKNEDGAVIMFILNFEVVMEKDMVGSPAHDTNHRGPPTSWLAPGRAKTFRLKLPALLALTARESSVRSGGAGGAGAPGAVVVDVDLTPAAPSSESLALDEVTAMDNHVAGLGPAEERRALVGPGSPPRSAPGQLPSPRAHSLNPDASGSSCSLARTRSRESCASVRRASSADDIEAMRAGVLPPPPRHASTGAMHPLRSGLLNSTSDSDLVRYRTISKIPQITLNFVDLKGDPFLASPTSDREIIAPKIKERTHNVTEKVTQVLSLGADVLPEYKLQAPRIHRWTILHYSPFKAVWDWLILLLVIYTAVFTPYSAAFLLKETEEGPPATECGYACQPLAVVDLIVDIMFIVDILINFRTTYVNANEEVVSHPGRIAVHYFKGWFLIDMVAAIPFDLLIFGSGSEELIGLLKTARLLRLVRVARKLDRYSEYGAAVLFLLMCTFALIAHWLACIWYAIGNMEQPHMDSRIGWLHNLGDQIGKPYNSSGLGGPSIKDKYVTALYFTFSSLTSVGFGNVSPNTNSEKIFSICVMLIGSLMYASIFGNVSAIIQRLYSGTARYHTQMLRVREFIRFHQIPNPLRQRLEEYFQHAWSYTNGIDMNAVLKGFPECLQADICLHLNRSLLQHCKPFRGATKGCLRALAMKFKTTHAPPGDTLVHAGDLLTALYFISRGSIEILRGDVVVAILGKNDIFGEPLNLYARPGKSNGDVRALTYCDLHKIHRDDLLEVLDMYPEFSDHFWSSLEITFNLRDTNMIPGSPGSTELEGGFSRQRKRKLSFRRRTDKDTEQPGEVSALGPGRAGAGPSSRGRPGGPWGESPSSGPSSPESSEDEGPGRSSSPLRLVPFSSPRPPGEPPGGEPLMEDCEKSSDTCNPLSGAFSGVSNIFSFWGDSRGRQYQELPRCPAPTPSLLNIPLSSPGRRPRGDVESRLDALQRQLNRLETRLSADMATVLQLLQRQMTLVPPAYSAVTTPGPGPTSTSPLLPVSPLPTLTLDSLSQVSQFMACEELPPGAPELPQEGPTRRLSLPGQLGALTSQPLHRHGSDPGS
T8 sequence (P48039 whole entry): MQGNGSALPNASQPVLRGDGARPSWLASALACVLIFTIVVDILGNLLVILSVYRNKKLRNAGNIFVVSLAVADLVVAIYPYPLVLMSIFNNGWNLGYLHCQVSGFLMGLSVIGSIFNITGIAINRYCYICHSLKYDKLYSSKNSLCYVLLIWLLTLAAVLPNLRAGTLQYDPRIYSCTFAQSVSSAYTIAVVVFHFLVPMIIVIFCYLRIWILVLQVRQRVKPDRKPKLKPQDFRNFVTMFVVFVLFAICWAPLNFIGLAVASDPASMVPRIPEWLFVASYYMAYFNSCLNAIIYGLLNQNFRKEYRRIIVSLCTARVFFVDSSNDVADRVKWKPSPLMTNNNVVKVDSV
T6 sequence (P35372 whole entry): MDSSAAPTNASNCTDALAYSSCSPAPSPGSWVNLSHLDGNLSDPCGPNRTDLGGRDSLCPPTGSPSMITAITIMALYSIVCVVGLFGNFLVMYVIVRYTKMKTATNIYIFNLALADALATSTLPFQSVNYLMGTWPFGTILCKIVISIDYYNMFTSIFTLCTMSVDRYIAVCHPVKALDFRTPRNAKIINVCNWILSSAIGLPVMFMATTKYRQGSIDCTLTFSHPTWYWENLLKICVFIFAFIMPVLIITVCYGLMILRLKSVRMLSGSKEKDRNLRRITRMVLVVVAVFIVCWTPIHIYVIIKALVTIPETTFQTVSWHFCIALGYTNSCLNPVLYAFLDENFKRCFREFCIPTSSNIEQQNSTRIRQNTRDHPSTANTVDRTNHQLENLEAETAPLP
T4 sequence (P07550 whole entry): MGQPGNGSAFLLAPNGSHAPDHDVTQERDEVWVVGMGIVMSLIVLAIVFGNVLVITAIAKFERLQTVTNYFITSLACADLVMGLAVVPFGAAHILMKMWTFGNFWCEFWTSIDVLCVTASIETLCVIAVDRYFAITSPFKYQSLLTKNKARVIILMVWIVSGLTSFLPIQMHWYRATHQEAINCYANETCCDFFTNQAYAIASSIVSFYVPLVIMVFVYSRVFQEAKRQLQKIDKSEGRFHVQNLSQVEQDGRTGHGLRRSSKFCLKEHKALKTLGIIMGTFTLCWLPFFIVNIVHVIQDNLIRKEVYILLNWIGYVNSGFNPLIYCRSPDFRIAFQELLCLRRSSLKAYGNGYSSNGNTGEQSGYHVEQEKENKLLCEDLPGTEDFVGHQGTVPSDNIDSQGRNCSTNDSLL
T11 sequence (P08908 whole entry): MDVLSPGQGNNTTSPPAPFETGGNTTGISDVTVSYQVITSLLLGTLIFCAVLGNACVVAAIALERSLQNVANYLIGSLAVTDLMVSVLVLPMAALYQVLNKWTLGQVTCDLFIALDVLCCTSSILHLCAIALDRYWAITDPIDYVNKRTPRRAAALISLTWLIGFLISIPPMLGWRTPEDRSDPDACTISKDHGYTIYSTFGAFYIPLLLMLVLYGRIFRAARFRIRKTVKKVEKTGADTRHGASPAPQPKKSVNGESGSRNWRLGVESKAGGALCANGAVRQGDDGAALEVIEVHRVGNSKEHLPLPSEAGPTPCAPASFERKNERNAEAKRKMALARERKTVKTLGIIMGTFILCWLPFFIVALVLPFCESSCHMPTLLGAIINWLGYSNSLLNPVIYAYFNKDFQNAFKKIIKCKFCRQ
T10 sequence (O43603 whole entry): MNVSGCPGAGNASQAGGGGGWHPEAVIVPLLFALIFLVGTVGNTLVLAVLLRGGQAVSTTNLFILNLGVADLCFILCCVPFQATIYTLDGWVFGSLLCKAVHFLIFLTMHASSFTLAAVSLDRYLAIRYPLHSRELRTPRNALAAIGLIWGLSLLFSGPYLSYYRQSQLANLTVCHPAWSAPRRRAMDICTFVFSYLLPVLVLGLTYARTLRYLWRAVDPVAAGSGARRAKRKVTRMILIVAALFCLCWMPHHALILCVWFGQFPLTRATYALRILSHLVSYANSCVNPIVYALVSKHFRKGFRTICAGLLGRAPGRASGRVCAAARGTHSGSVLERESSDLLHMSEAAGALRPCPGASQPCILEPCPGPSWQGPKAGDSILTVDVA
Sequence of CYP2B6 (P20813 whole entry): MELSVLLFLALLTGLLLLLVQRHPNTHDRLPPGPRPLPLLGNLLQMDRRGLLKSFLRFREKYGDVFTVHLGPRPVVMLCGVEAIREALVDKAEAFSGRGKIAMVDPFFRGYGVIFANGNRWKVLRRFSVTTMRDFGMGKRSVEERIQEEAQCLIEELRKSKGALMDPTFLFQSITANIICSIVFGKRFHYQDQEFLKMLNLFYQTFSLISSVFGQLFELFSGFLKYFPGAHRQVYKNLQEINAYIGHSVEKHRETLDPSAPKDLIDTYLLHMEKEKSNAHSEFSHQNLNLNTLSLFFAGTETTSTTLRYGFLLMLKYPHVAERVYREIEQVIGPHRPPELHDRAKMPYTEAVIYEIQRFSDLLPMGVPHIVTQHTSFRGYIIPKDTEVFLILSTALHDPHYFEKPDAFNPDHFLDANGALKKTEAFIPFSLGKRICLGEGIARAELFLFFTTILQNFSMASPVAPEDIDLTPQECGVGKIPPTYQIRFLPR
T1 sequence (P34975 whole entry): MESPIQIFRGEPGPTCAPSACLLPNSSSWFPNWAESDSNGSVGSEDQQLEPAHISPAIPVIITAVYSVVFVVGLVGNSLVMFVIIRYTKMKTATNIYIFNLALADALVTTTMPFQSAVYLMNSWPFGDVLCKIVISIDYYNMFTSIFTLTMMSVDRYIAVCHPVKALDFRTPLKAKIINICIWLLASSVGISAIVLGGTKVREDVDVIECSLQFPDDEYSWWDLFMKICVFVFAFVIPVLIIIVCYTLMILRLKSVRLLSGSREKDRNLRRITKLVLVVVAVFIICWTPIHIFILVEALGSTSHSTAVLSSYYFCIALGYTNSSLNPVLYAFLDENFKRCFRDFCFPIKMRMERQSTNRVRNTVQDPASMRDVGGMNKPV
T3 sequence (P08172 whole entry): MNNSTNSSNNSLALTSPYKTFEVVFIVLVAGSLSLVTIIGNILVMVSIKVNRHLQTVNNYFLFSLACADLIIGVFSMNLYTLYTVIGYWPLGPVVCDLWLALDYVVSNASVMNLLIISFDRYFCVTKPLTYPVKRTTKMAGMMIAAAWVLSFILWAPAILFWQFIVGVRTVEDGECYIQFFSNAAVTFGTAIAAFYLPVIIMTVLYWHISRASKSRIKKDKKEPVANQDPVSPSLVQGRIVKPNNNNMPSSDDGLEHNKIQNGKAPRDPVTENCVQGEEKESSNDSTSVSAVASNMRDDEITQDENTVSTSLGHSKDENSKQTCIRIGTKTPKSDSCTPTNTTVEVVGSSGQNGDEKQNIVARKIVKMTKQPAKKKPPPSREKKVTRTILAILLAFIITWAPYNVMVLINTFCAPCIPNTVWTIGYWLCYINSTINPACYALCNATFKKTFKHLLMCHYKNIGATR

| Structure (SMILES) | Inhibition of control specific binding (k (KOP)) [%] | Inhibition of control specific binding (M2 (h)) [%] | Remaining enzyme activity (CYP3A4; [3]) [%] | Remaining enzyme activity (CYP3A4; [4]) [%] | Remaining enzyme activity (CYP3A4; [5]) [%] | Remaining enzyme activity (CYP3A4; [6]) [%] | IC50 ([1]; ring stages) [nM] | IC50 ([1]; schizonts) [nM] | IC50 ([1]; trophozoites) [nM] | Inhibition of control specific binding (b2 (h)) [%] | Inhibition of control specific binding (CXCR2 (IL-8B) (h)) [%] | Inhibition of control specific binding (BZD (central)) [%] | Remaining enzyme activity (CYP2B6) [%] | Inhibition of control specific binding (m (MOP) (h)) [%] | Remaining enzyme activity (CYP2C9) [%] | effect on cytoplasmic free Ca^2+ [2] | Inhibition of control specific binding (NK2 (h)) [%] | activity, ex vivo one-cycle growth inhibition assay (Plasmodium berghei) | Inhibition of control specific binding (MT1 (ML1A) (h)) [%] | Inhibition of control specific binding (H2 (h)) [%] | other results |
| --- | --- | --- | --- | --- | --- | --- | --- | --- | --- | --- | --- | --- | --- | --- | --- | --- | --- | --- | --- | --- | --- |
| CCCCN1CCN(C(=N)c2cccc(NC(=O)Nc3ccc(S(=O)(=O)NCc4ccc(S(N)(=O)=O)cc4)cc3)c2)CC1 [SC81458, 4-(3-(3-((4-butylpiperazin-1-yl)(imino)methyl)phenyl)ureido)-N-(4-sulfamoylbenzyl) benzenesulfonamide] | 43 | 45 | 74 | 77 | 66 | 98 | 5000 ± 1000 | 70 ± 10 | 37 ± 3 | 6 | -8 | 16 | 87 | 24 | 104 | did not affect | 51 | inactive | -5 | 26 | hERG activity retained (hERG channel; 60 μM): > 90%; Inhibition of control specific binding (GAL2 (h)): -15%; Inhibition of control specific binding (5-HT1A (h)): 2% |
| COC(=O)N1CCN(C(=N)c2cccc(NC(=O)Nc3ccc(S(=O)(=O)NCc4ccc(S(N)(=O)=O)cc4)cc3)c2)CC1 [SC83288, methyl 4-(imino(3-(3-(4-(N-(4-sulfamoylbenzyl)sulfamoyl)phenyl)ureido)phenyl)methyl) piperazine-1-carboxylate] | 36 | 68 | 92 | 88 | 87 | 92 | 3000 ± 1000 | 110 ± 30 | 40 ± 4 | 27 | -1 | 70 | 95 | 25 | 103 | did not affect | 20 | inactive | -16 | 0 | hERG activity retained (hERG channel; 20 μM): > 90%; hERG channel remaining active (hERG channel; 100 μM): 50%; Inhibition of control specific binding (GAL2 (h)): 4%; Inhibition of control specific binding (5-HT1A (h)): 15% |
